From ChEMBL document CHEMBL1909046, “DrugMatrix in vitro pharmacology data”

Columns and labels:
[1] = target: T1, Muscarinic acetylcholine receptor M4 (Homo sapiens, UniProt P08173); assay type: cell membranes, CHO-K1, Membrane; settings: cho-k1; also: in other assays of this panel Not Active means under 50% inhibition at 10 µM
T1 sequence (P08173 whole entry): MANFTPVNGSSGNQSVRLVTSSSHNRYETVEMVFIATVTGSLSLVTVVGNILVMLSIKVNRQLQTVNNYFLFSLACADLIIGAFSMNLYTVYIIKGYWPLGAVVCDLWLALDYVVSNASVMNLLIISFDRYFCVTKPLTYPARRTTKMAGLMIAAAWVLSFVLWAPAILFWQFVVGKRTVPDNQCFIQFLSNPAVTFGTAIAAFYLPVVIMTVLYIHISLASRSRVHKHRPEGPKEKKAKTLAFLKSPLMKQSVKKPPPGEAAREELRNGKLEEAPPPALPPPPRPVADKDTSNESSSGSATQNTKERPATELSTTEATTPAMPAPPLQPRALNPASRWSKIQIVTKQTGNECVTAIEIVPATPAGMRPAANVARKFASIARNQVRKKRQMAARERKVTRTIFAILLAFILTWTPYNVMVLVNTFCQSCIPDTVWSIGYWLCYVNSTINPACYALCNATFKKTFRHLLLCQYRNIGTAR

[2] = DRUGMATRIX: Sodium/nucleoside co-transporter radioligand binding (ligand: nitrobenzylthioinosine); assay type: cell membranes, Cavia porcellus, Dunkin-Hartley, Cerebral cortex, Membrane; settings: Not Active = under 50% inhibition at 10 µM
Cytochrome P450 2D6 = Cytochrome P450 2D6 (Homo sapiens, UniProt P10635); settings: bti-tn-5b1-4; also: in other assays of this panel Not Active means under 50% inhibition at 10 µM
Cytochrome P450 1A2 = target: T2, Cytochrome P450 1A2 (Homo sapiens, UniProt P05177); settings: bti-tn-5b1-4; also: in other assays of this panel Not Active means under 50% inhibition at 10 µM
T2 sequence (P05177 whole entry): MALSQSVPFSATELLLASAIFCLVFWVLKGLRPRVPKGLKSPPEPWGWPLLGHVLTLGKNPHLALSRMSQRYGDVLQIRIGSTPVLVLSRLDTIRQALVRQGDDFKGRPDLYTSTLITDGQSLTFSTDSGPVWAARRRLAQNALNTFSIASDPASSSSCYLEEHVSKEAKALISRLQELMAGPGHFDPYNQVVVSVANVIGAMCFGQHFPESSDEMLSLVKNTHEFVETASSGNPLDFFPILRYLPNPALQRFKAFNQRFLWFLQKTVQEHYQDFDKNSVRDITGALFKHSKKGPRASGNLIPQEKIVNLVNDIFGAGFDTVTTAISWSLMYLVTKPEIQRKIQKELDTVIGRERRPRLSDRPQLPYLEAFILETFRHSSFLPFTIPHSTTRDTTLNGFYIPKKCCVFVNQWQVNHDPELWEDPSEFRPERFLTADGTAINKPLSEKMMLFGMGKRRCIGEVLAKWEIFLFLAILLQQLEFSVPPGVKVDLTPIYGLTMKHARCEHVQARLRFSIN

Estrogen receptor beta = Estrogen receptor beta (Homo sapiens, UniProt Q92731); settings: sf9; also: in other assays of this panel Not Active means under 50% inhibition at 10 µM
[3] = target: Beta-2 adrenergic receptor (Homo sapiens, UniProt P07550); assay: DRUGMATRIX: Adrenergic beta2 radioligand binding (ligand: [3H] CGP-12177); assay type: cell membranes, Membrane; settings: cho; Not Active = under 50% inhibition at 10 µM
[4] = target: T3, C-X-C chemokine receptor type 1 (Homo sapiens, UniProt P25024); also: in other assays of this panel Not Active means under 50% inhibition at 10 µM
T3 sequence (P25024 whole entry): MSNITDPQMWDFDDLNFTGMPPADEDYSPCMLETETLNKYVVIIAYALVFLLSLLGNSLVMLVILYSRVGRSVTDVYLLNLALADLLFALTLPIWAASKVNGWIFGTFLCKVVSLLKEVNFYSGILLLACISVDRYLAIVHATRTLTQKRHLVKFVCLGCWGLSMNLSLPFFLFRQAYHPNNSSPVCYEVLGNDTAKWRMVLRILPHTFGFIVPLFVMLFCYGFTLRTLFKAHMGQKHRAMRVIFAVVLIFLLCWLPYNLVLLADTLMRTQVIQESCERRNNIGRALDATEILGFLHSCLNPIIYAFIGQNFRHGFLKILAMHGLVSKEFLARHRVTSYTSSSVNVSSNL

Melanocortin receptor 3 = Melanocortin receptor 3 (Homo sapiens, UniProt P41968); assay type: cell membranes, Membrane; settings: hek293; also: in other assays of this panel Not Active means under 50% inhibition at 10 µM
[5] = target: 5-hydroxytryptamine receptor 4 (Cavia porcellus, UniProt O70528); assay type: cell membranes, Dunkin-Hartley, Striatum, Membrane; also: in other assays of this panel Not Active means under 50% inhibition at 10 µM
[6] = DRUGMATRIX: Leukotriene, BLT (LTB4) radioligand binding (ligand: [3H]LTB4); assay type: cell membranes, Membrane; settings: u-937; Not Active = under 50% inhibition at 10 µM
Insulin receptor = Insulin receptor (Rattus norvegicus, UniProt P15127); assay type: cell membranes, Wistar, Liver, Membrane; also: in other assays of this panel Not Active means under 50% inhibition at 10 µM
Histamine H2 receptor = Histamine H2 receptor (Homo sapiens, UniProt P25021); assay type: cell membranes, CHO-K1, Membrane; settings: cho-k1; also: in other assays of this panel Not Active means under 50% inhibition at 10 µM
[7] = target: T4, Cholecystokinin receptor type A (Homo sapiens, UniProt P32238); assay type: cell membranes, Membrane; settings: 1321-n1; also: in other assays of this panel Not Active means under 50% inhibition at 10 µM
T4 sequence (P32238 whole entry): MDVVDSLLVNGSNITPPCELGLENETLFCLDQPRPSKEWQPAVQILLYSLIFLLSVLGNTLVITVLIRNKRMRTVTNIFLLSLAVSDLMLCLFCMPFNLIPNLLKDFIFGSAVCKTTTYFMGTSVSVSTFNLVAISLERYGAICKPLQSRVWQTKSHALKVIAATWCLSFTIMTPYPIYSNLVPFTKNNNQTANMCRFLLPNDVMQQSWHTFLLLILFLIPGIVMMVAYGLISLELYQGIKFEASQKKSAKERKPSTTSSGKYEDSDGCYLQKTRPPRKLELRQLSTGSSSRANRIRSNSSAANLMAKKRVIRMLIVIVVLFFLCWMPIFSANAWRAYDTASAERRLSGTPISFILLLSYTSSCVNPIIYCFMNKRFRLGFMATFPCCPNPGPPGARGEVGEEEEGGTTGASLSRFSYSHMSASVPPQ

[8] = DRUGMATRIX: Imidazoline I2, Central radioligand binding (ligand: [3H] Idazoxan); assay type: cell membranes, Rattus norvegicus, Wistar, Cerebral cortex, Membrane; settings: Not Active = under 50% inhibition at 10 µM

Chain of Cytochrome P450 2D6 (P10635 whole entry): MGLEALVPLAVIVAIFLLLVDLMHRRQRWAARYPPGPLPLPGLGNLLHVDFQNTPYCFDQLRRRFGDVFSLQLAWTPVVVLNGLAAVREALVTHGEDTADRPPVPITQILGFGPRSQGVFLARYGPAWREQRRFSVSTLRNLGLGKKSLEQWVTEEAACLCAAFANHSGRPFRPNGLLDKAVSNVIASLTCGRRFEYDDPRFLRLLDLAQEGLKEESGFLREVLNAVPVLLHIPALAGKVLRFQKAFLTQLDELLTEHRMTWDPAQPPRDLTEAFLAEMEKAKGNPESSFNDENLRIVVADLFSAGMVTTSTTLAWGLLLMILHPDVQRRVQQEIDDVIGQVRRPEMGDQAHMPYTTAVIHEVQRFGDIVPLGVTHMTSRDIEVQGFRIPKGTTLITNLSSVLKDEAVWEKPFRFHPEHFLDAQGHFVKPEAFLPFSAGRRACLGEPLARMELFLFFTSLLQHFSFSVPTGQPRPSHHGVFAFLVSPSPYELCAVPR
Chain of Melanocortin receptor 3 (P41968 whole entry): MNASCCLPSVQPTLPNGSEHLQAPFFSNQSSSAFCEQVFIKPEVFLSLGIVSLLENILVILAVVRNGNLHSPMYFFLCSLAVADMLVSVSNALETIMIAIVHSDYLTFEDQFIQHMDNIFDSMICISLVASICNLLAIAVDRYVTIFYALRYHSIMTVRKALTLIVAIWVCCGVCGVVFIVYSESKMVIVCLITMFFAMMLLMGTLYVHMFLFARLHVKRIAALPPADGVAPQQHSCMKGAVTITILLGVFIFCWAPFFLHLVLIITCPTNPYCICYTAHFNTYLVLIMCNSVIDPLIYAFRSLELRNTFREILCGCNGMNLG
Chain of Histamine H2 receptor (P25021 whole entry): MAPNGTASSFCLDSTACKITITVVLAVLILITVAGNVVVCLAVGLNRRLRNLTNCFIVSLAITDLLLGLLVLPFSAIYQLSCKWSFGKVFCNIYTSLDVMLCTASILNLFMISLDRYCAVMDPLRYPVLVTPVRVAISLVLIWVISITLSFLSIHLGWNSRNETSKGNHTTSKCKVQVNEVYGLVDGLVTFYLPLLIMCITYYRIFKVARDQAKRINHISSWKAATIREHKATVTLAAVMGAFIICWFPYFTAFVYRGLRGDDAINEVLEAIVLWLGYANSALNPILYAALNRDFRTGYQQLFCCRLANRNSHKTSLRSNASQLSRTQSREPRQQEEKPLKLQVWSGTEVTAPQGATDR
Chain of Insulin receptor (P15127 27-759 limits assumed): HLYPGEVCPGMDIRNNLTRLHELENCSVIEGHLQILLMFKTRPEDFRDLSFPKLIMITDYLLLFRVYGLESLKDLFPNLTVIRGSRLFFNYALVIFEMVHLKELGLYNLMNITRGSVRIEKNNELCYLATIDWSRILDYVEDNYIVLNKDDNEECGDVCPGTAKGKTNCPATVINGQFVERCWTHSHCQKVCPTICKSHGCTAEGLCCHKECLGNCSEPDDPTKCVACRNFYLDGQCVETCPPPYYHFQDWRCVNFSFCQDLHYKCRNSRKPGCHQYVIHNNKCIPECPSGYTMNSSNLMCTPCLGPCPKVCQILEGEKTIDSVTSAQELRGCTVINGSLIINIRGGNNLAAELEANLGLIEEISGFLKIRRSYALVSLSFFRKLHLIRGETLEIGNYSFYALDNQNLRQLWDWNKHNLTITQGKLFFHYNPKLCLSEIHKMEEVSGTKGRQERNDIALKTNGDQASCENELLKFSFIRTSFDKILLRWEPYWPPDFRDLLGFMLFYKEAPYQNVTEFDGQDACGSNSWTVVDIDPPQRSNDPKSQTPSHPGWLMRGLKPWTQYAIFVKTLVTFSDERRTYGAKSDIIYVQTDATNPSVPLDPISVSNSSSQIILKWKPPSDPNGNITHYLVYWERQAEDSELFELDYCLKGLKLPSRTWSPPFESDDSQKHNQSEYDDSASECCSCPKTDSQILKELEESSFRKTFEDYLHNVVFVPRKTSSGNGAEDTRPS
Chain of Insulin receptor (P15127 764-1383 limits assumed): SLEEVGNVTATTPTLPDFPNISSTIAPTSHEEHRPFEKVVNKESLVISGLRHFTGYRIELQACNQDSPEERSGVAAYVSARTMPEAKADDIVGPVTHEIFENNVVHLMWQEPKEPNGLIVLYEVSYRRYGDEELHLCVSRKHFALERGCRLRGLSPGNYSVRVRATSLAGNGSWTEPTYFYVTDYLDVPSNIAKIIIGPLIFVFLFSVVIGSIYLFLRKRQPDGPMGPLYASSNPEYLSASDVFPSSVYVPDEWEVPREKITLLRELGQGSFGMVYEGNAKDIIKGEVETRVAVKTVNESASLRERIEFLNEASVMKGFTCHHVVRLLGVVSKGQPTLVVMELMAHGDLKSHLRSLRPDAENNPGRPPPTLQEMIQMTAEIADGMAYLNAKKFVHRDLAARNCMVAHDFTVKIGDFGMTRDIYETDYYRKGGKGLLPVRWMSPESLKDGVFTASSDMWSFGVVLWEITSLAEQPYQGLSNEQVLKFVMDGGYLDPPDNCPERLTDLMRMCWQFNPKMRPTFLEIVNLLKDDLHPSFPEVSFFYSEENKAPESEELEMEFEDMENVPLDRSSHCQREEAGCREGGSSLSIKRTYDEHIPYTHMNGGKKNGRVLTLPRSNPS
Chain of 5-hydroxytryptamine receptor 4 (O70528 whole entry): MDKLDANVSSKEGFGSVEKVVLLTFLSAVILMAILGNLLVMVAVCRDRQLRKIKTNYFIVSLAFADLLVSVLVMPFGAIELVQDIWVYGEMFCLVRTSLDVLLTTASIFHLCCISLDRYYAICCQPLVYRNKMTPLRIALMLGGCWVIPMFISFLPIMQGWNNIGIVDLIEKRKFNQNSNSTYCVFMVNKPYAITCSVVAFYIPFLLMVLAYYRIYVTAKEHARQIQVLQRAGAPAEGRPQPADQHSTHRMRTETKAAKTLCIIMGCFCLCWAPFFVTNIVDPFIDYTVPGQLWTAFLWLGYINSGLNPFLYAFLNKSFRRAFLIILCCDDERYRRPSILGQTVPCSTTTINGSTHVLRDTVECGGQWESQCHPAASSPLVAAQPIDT
Chain of Estrogen receptor beta (Q92731 whole entry): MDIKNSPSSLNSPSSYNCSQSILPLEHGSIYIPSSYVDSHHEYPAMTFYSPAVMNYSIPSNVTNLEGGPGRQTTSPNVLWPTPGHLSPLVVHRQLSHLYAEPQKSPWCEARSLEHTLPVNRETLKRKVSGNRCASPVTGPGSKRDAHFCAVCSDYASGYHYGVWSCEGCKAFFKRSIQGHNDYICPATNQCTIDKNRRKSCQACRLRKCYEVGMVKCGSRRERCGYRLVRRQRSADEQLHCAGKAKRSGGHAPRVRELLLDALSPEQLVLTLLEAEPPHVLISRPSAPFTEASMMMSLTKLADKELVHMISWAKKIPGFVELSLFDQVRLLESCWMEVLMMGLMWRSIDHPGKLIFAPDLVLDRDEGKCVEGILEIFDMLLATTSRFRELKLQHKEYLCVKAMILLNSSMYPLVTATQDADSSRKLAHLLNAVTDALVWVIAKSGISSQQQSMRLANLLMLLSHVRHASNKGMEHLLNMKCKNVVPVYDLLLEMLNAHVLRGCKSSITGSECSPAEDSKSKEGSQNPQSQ

CC(C)(S)[C@@H](N)C(=O)O [PENICILLAMINE]
Not Active: IC50 [1] | IC50 [2] | Ki [2] | IC50 (Cytochrome P450 2D6) | Ki (Cytochrome P450 2D6) | IC50 (Cytochrome P450 1A2) | Ki (Cytochrome P450 1A2) | IC50 (Estrogen receptor beta) | IC50 [3] | IC50 [4] | IC50 (Melanocortin receptor 3) | IC50 [5] | IC50 [6] | Ki [6] | IC50 (Insulin receptor) | IC50 (Histamine H2 receptor) | IC50 [7] | IC50 [8] | Ki [8]

CCCCCCCCCc1ccc(O)cc1 [4-NONYLPHENOL]
Not Active: IC50 [1] | IC50 [2] | Ki [2] | IC50 (Cytochrome P450 2D6) | Ki (Cytochrome P450 2D6) | IC50 (Cytochrome P450 1A2) | Ki (Cytochrome P450 1A2) | IC50 (Estrogen receptor beta) | IC50 [3] | IC50 [4] | IC50 (Melanocortin receptor 3) | IC50 [5] | IC50 [6] | Ki [6] | IC50 (Insulin receptor) | IC50 (Histamine H2 receptor) | IC50 [7] | IC50 [8] | Ki [8]

N#C[C@H](O[C@@H]1O[C@H](CO[C@@H]2O[C@H](CO)[C@@H](O)[C@H](O)[C@H]2O)[C@@H](O)[C@H](O)[C@H]1O)c1ccccc1 [AMYGDALIN]
Not Active: IC50 [1] | IC50 [2] | Ki [2] | IC50 (Cytochrome P450 2D6) | Ki (Cytochrome P450 2D6) | IC50 (Cytochrome P450 1A2) | Ki (Cytochrome P450 1A2) | IC50 (Estrogen receptor beta) | IC50 [3] | IC50 [4] | IC50 (Melanocortin receptor 3) | IC50 [5] | IC50 [6] | Ki [6] | IC50 (Insulin receptor) | IC50 (Histamine H2 receptor) | IC50 [7] | IC50 [8] | Ki [8]

CCOC(=O)OC(C)OC1=C(C(=O)Nc2ccccn2)N(C)S(=O)(=O)c2ccccc21 (stereo unspecified) [AMPIROXICAM]
Not Active: IC50 [1] | IC50 [2] | Ki [2] | IC50 (Cytochrome P450 2D6) | Ki (Cytochrome P450 2D6) | IC50 (Cytochrome P450 1A2) | Ki (Cytochrome P450 1A2) | IC50 (Estrogen receptor beta) | IC50 [3] | IC50 [4] | IC50 (Melanocortin receptor 3) | IC50 [5] | IC50 [6] | Ki [6] | IC50 (Insulin receptor) | IC50 (Histamine H2 receptor) | IC50 [7] | IC50 [8] | Ki [8]

GOLD SODIUM THIOMALATE
Not Active: IC50 [1] | Ki [1] | IC50 [2] | Ki [2] | IC50 (Cytochrome P450 2D6) | Ki (Cytochrome P450 2D6) | IC50 (Cytochrome P450 1A2) | Ki (Cytochrome P450 1A2) | IC50 (Estrogen receptor beta) | Ki (Estrogen receptor beta) | IC50 [3] | Ki [3] | IC50 [4] | Ki [4] | IC50 (Melanocortin receptor 3) | Ki (Melanocortin receptor 3) | IC50 [5] | Ki [5] | IC50 [6] | Ki [6] | IC50 (Insulin receptor) | Ki (Insulin receptor) | IC50 (Histamine H2 receptor) | Ki (Histamine H2 receptor) | IC50 [7] | Ki [7] | IC50 [8] | Ki [8]

C[C@]12CCC(=O)C=C1CC[C@@H]1[C@@H]2C(=O)C[C@@]2(C)[C@H]1CC[C@]2(O)C(=O)CO [CORTISONE]
Not Active: IC50 [1] | IC50 [2] | Ki [2] | IC50 (Cytochrome P450 2D6) | Ki (Cytochrome P450 2D6) | IC50 (Cytochrome P450 1A2) | Ki (Cytochrome P450 1A2) | IC50 (Estrogen receptor beta) | IC50 [3] | IC50 [4] | IC50 (Melanocortin receptor 3) | IC50 [5] | IC50 [6] | Ki [6] | IC50 (Insulin receptor) | IC50 (Histamine H2 receptor) | IC50 [7] | IC50 [8] | Ki [8]

CCCC[C@@H](CC)COC(=O)c1ccccc1C(=O)OC[C@@H](CC)CCCC [BIS(2-ETHYLHEXYL)PHTHALATE]
Not Active: IC50 [1] | IC50 [2] | Ki [2] | IC50 (Cytochrome P450 2D6) | Ki (Cytochrome P450 2D6) | IC50 (Cytochrome P450 1A2) | Ki (Cytochrome P450 1A2) | IC50 (Estrogen receptor beta) | IC50 [3] | IC50 [4] | IC50 (Melanocortin receptor 3) | IC50 [5] | IC50 [6] | Ki [6] | IC50 (Insulin receptor) | IC50 (Histamine H2 receptor) | IC50 [7] | IC50 [8] | Ki [8]

CN(C)[C@@H]1C(O)=C(C(N)=O)C(=O)[C@@]2(O)C(O)=C3C(=O)c4c(O)cccc4[C@@](C)(O)[C@H]3[C@H](O)[C@@H]12 [OXYTETRACYCLINE]
Not Active: IC50 [1] | IC50 [2] | Ki [2] | IC50 (Cytochrome P450 2D6) | Ki (Cytochrome P450 2D6) | IC50 (Cytochrome P450 1A2) | Ki (Cytochrome P450 1A2) | IC50 (Estrogen receptor beta) | IC50 [3] | IC50 [4] | IC50 (Melanocortin receptor 3) | IC50 [5] | IC50 [6] | Ki [6] | IC50 (Insulin receptor) | IC50 (Histamine H2 receptor) | IC50 [7] | IC50 [8] | Ki [8]
